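Grown in 96-well plates, cells were treated for 48 hours with each compound at five concentrations. Insufficient inhibition: endpoint recorded as highest concentration tested. TGI marks complete inhibition of growth.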 Where a SMILES comes first, the peptide text is derived from it. The star is where a group is joined. Boc = CC(C)(C)OC(=O)*
What was measured:
Assay in all cases: inhibition of tumour cell growth, NCI panel, 48 h
786-0 renal = test system: 786-0 renal
A549 NSCLC = test system: A549 NSCLC
BT-549 breast = test system: BT-549 breast
COLO 205 colon = test system: COLO 205 colon
HCT-116 colon = test system: HCT-116 colon
HOP-62 NSCLC = test system: HOP-62 NSCLC
HOP-92 NSCLC = test system: HOP-92 NSCLC
IGROV1 ovarian = test system: IGROV1 ovarian
NCI-H226 lung = test system: NCI-H226 lung
NCI-H23 lung = test system: NCI-H23 lung
SK-MEL-28 melanoma = test system: SK-MEL-28 melanoma
SW-620 colon = test system: SW-620 colon
TK-10 renal = test system: TK-10 renal
UACC-257 melanoma = test system: UACC-257 melanoma
UACC-62 melanoma = test system: UACC-62 melanoma
DU-145 prostate = test system: DU-145 prostate
LOX IMVI melanoma = test system: LOX IMVI melanoma
MCF7 breast = test system: MCF7 breast
SF-295 CNS = test system: SF-295 CNS
SK-OV-3 ovarian = test system: SK-OV-3 ovarian

Structure (SMILES) | TGI (786-0 renal) | TGI (A549 NSCLC) | TGI (BT-549 breast) | TGI (COLO 205 colon) | TGI (HCT-116 colon) | TGI (HOP-62 NSCLC) | TGI (HOP-92 NSCLC) | TGI (IGROV1 ovarian) | TGI (NCI-H226 lung) | TGI (NCI-H23 lung) | TGI (SK-MEL-28 melanoma) | TGI (SW-620 colon) | TGI (TK-10 renal) | TGI (UACC-257 melanoma) | TGI (UACC-62 melanoma) | TGI (DU-145 prostate) | TGI (LOX IMVI melanoma) | TGI (MCF7 breast) | TGI (SF-295 CNS) | TGI (SK-OV-3 ovarian)
COC(=O)C(Cc1c[nH]c2ccccc12)NC(=O)C(Cc1c[nH]c2ccccc12)NC(=O)C(Cc1c[nH]c2ccccc12)NC(=O)OC(C)(C)C (stereo not drawn) (Boc-Trp-Trp-Trp-OMe; configuration not given here) | 31.7 µM | > 100 µM | 33.8 µM | 42.7 µM | 29.8 µM | 32.7 µM | 33 µM | 40.5 µM | 37.1 µM | 31.8 µM | 33.8 µM | 40.7 µM | 46.7 µM | > 100 µM | 38.3 µM |  |  |  |  | 
COc1cc(CNc2nc3ccccc3n2Cc2ccccc2)cc(CN2CCOCC2)c1O | 31.6 µM | > 100 µM |  | 40.1 µM | 41.7 µM | 65.2 µM | 56.3 µM | > 100 µM | 82.8 µM | > 100 µM | 34.6 µM | > 100 µM | 65.9 µM | 39.9 µM | 45.2 µM | > 100 µM | 30.7 µM | 79.5 µM | 41.6 µM | > 100 µM
COc1cc2c(cc1OC)C(=O)Cc1ccc3c(c1CNCC2)OCO3 | > 100 µM | > 100 µM |  | > 100 µM | > 100 µM | > 100 µM |  | > 100 µM |  | > 100 µM | > 100 µM | > 100 µM | > 100 µM | > 100 µM | > 100 µM |  |  |  | > 100 µM | > 100 µM
COC(=O)CCCC(=O)NC1=C(Nc2ccccc2)C(=O)c2ccccc2C1=O | 33.5 µM | 36.8 µM |  | 35.7 µM | 32.7 µM |  | 73.6 µM | 30.2 µM |  | 29.6 µM | 30.3 µM | 52.4 µM | 49.7 µM | 26.4 µM | 11.9 µM | 29.4 µM | 41.6 µM | 32.1 µM | 33 µM | 53.4 µM
Cc1nc2nn(Cc3ccccc3)cc2c(=O)o1 | > 100 µM | > 100 µM |  | > 100 µM | > 100 µM | > 100 µM |  | > 100 µM | > 100 µM |  |  | > 100 µM | > 100 µM | > 100 µM | > 100 µM |  | > 100 µM |  | > 100 µM | 
O=C1CCc2nc3ncccc3cc2C1 | > 100 µM | > 100 µM | > 100 µM | > 100 µM | > 100 µM | > 100 µM | > 100 µM | > 100 µM | > 100 µM | > 100 µM | > 100 µM | > 100 µM | > 100 µM | > 100 µM |  |  |  |  | > 100 µM | > 100 µM
CC(C)(C)OC(=O)NNC(=O)C1Cc2ccccc2OC1=O (configuration not stated) | > 100 µM | > 100 µM | > 100 µM |  | > 100 µM | > 100 µM |  | > 100 µM | > 100 µM | > 100 µM | > 100 µM | > 100 µM | > 100 µM | > 100 µM | > 100 µM | > 100 µM |  |  | > 100 µM | > 100 µM
CC(=O)OCC1OC(O[C@@H]2C[C@H]3C(C)(C)[C@H](OC(C)=O)CC[C@]3(C)[C@H]3CC[C@]4(C)C(=CC[C@H]4[C@@H](C)C[C@@H](O)[C@H](O)C(C)(C)O)[C@@]32C)C(O)C(O)C1O (some centres not stated) | 29.9 µM |  |  | 27.7 µM | 27.5 µM | 29.3 µM | 30.9 µM | 33.8 µM |  | 35.5 µM | 29.8 µM | 32.8 µM | 32 µM | 35.1 µM | 30.5 µM | 32.1 µM | 30.2 µM | 33.2 µM | 33 µM | 32.5 µM
CS(=O)(=O)N1CC(CCl)c2ccc(NCCN)cc21 (configuration not stated) | 72 µM | > 100 µM |  | > 100 µM | > 100 µM | 32.1 µM | 74.6 µM | 49.8 µM | > 100 µM | > 100 µM | > 100 µM | > 100 µM | > 100 µM | > 100 µM |  | > 100 µM | > 100 µM | > 100 µM |  | 87.9 µM
CCc1cccc(CC)c1Nc1nc2c(s1)C(=O)c1ccccc1C2=O | 36 µM | > 100 µM |  | 49.6 µM | 31.4 µM | 30.2 µM | 44.7 µM | 25.7 µM |  | 32.8 µM | 35.9 µM | 74.6 µM | 36.6 µM | 37.8 µM | 32.3 µM | 45.3 µM | 36 µM | 52 µM | 27.8 µM | 89.8 µM
O=C1NC(=O)[C@@H](OCC2CCCCC2)[C@@H]2OCC3OC(C(O)C3O)C12 (some centres not stated) | > 100 µM | > 100 µM |  | > 100 µM | > 100 µM | > 100 µM |  | > 100 µM | > 100 µM | > 100 µM | > 100 µM | > 100 µM | > 100 µM | > 100 µM | > 100 µM | > 100 µM | > 100 µM | > 100 µM | > 100 µM | > 100 µM
COc1cc(C2=C(C)[C@@H]3CN(CC=C3c3ccc(Cl)cc3)C2)c(S(=O)(=O)O)cc1OC | > 100 µM | > 100 µM | > 100 µM | > 100 µM | > 100 µM | > 100 µM | > 100 µM | > 100 µM | > 100 µM | > 100 µM | > 100 µM | > 100 µM | > 100 µM | > 100 µM | > 100 µM | > 100 µM | > 100 µM |  | > 100 µM | > 100 µM
CN(C)/N=C1\C=C2CC[C@H](O[Si](C)(C)C(C)(C)C)[C@@]2(C)CC1 | 31.9 µM | 34.8 µM |  | 32.1 µM |  | 32.6 µM | 28.5 µM | 41 µM | 35 µM | 52.4 µM | 29.5 µM | 31.9 µM | 34.6 µM | 30.6 µM | 30.4 µM | 33.2 µM | 34.4 µM | 31.5 µM | 30 µM | 68.2 µM
